The results in this text go back to US20170067909A1, “ASSAY-READY RECOMBINANT CELLS TRANSIENTLY OVEREXPRESSING GENES ENCODING DRUG TRANSPORTER PROTEINS AND/OR DRUG METABOLIZING ENZYMES” (Corning Incorporated, priority 2012, published 2017).

Where a chain is given by its changes, count along the chain named. Where two headings read alike, the source gives them in different places.

In one data set the target is T1, OATP1B1 (Homo sapiens, UniProt Q9Y6L6).
T1 sequence (Q9Y6L6 1-691): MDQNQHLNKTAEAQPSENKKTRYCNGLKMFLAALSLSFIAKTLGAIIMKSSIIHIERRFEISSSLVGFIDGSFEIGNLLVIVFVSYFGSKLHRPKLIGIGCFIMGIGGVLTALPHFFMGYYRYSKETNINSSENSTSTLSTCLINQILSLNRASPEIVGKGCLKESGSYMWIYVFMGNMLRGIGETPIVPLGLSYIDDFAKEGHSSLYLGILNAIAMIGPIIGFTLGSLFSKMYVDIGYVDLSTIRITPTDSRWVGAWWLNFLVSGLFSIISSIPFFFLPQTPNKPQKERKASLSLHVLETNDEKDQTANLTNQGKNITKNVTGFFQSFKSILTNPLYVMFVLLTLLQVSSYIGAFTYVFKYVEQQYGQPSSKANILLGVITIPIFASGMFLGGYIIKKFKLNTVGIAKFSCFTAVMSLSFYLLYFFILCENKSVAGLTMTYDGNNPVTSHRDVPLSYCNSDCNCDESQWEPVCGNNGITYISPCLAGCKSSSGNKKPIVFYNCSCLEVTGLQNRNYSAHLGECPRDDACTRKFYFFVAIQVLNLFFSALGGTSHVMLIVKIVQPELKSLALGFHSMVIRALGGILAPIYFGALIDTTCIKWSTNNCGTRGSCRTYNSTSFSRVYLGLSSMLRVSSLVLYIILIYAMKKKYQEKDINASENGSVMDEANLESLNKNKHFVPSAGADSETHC

The target of another data set is T2, rat Oatp1b2 (Rattus norvegicus, UniProt Q9QZX8).
T2 sequence (Q9QZX8 1-687): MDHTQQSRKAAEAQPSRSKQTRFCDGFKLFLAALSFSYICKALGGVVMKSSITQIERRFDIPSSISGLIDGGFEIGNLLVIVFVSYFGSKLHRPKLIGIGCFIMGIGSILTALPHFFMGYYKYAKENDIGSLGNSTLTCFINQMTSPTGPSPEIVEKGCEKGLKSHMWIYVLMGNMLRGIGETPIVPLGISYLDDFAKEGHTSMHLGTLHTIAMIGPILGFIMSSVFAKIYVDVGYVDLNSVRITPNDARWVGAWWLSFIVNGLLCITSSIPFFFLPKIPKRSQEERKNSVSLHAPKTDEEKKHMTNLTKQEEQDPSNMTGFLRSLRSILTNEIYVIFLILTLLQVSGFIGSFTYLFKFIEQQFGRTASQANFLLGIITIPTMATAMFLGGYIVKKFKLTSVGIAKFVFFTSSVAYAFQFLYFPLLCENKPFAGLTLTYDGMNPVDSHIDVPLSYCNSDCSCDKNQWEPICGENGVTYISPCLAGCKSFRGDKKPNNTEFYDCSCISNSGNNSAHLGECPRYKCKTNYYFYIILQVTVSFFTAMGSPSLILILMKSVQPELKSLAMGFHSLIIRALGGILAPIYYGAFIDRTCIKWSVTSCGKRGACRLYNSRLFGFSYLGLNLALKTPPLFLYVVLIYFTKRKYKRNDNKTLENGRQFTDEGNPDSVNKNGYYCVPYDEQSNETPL

In another data set the target is T3, OATP1B1*1a (Homo sapiens, UniProt Q9Y6L6).
T3 sequence (Q9Y6L6 1-691): T1 sequence (Q9Y6L6 1-691)
Particulars: read-out: Km, SLC Transporter Cells; substrate 0.25 to 40 μM, incubation 1 min.

For a further data set, the target named is T4, OATP1B1*5 (Homo sapiens, UniProt Q9Y6L6, V174A).
T4 sequence (Q9Y6L6 1-691 V174A): T1 sequence (Q9Y6L6 1-691) with V174A
The data set can be described thus: OATP1B1 single nucleotide polymorphism panel uptake assay, OATP1B1*5 HEK-293 cells.

By Km is commonly meant the concentration of substrate that gives half-maximal velocity. For `C[C@]12CC[C@@H]3c4ccc(O)cc4CC[C@H]3[C@@H]1CC[C@@H]2O[C@@H]1O[C@H](C(=O)O)[C@@H](O)[C@H](O)[C@H]1O` [E17βG], the “UPTAKE ACTIVITY pOATP1B1” value at OATP1B1 (293-F cells, 0.2 × 10^6 cells/well, after thaw from cryopreservation) was 20.2 pmol/mg/min; at OATP1B1 (293-F in CD293, cryo, 24 hr post plating, 0.4×10^6 cells/well), 27.4 pmol/mg/min; at OATP1B1 (293-F in CD293, cryo, 72 hr post plating, 0.4×10^6 cells/well), 9.9 pmol/mg/min; on OATP1B1 (293-F in CD293, fresh, 48 hr post plating, 0.4×10^6 cells/well), 15.4 (85%) pmol/mg/min; on OATP1B1 (FS293 cells, 0.2 × 10^6 cells/well, after thaw from cryopreservation) it was 10.5 pmol/mg/min; at OATP1B1 (FS293 in Excell, cryo, 24 hr post plating, 0.4×10^6 cells/well), 36.4 pmol/mg/min. Also, the “UPTAKE ACTIVITY pOATP1B1” value stood at 10.0 pmol/mg/min on OATP1B1 (FS293 in Excell, cryo, 48 hr post plating, 0.4×10^6 cells/well) and 6.6 pmol/mg/min at OATP1B1 (FS293 in Excell, cryo, 72 hr post plating, 0.4×10^6 cells/well). The “Uptake Activity” value on OATP1B1 (recovery time prior to cryopreservation 24 HOURS) stood at 0.59 pmol/mg/min; at OATP1B1 (recovery time prior to cryopreservation 30 MIN), 5.78 pmol/mg/min. Also, the results for the Km at rat Oatp1b2 and at OATP1B1*1a were 9.6 ± 1.9 µM and 6.2 µM, respectively. Further, on rat Oatp1b2 (HEK-293 cells overexpressing the transporter), the “uptake of substrate (in words)” value is on record as “significant uptake”. Also, the “uptake activity / transport compared to OATP1B1*1a cells (in words)” value on OATP1B1*5 is recorded as “Significantly impaired transport”.
Consider fluorescein methotrexate [FMTX], for which the “uptake activity / transport compared to OATP1B1*1a cells (in words)” value on OATP1B1*5 is on record as “Significantly impaired transport”.
